# Measured values from the supplement of paper PMC11451515.
# Legend:
# Experiment in all cases: AUC of viability dose-response curve (% viability x log10 dose units); higher = less sensitive
# Conditions in all cases: 48 h
# [1] = system: P12-Ichikawa
# Summary of the method: (§1)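 Medium-adapted leukemia cells in 1536-well plates, at 500 or 1000 cells/well, were incubated for 48 h at 37°C with library compounds in DMSO at 11 threefold doses from 47 μM to 0.79 nM. CellTiter-Glo One luminescence normalised per plate to DMSO and cell-free wells was fitted with a four-parameter log-logistic model over log10 doses. Area under the curve was integrated from this fit by trapezoidal rule, with curves beyond full viability scaled and failed quality-control curves removed.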
# [2] = system: NOMO1
# Summary of the method: as §1
# [3] = system: SEM cells
# Summary of the method: as §1
# [4] = RPMI 5 mM glucose + 10% dialyzed FBS
SMILES,AUC of viability dose-response curve ([1]; HPLM + 10% dialyzed FBS),AUC of viability dose-response curve ([1]; RPMI 5 mM glucose + 10% FBS),"AUC of viability dose-response curve [1, 4]",AUC of viability dose-response curve ([2]; HPLM + 10% dialyzed FBS),AUC of viability dose-response curve ([2]; RPMI 5 mM glucose + 10% FBS),"AUC of viability dose-response curve [2, 4]",AUC of viability dose-response curve ([3]; HPLM + 10% dialyzed FBS),AUC of viability dose-response curve ([3]; RPMI 5 mM glucose + 10% FBS),"AUC of viability dose-response curve [3, 4]"
CC(C)(C)C1=NC2=C([NH]1)C3=CC=C(F)C=C3C4=C2\C=C/NC4=O,391,404,408,415,412,408,384,378,384
Nc1cccc(-c2cc3c(Oc4cccc(O)c4)ncnc3[nH]2)c1,423,431,436,445,463,460,414,415,414
CN(C)C(=O)COC(=O)Cc1ccc(OC(=O)c2ccc(NC(=N)N)cc2)cc1,446,462,437,426,469,465,465,458,469
